Laboratory results: US20260308159A1, “BICYCLIC HETEROARYLAMIDES HAVING GPR68 MODULATING ACTIVITY” (RECURSION PHARMACEUTICALS, INC., priority 2023, published 2026)

biological target: T1, human GPR68 (Homo sapiens, UniProt Q15743); assay: GPR68 Biochemical Assay (Promega GloSensor cAMP assay, GPR68 antagonism); type: cell-based; settings: HEK293T cells transiently expressing hGPR68, antagonism of pH 5.5 stimulated cAMP, 15 min, read-out: hGPR68 IC50
T1 construct: encoding full-length human GPR68 (uniprot ID: Q15743); expressed in transfected cells; host or cells: HEK293T
T1 sequence (Q15743 whole entry): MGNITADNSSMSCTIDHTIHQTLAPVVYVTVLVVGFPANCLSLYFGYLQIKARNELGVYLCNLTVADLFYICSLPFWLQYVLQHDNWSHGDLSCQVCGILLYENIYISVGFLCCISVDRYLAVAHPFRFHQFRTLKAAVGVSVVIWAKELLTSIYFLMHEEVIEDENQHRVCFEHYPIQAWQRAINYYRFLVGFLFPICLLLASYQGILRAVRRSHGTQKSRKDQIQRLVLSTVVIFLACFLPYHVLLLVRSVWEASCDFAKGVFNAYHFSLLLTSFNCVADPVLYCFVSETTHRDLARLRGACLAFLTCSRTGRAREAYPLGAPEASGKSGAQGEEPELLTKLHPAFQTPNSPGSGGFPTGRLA
Outline: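 HEK293T cells transiently co-transfected with full-length human GPR68 and GloSensor plasmids, preloaded 60 min with GloSensor substrate in pH 8.0 buffer. Compounds (9-point half-log series, top 50 μM final, 0.5% DMSO) added with pH 5.5 buffer (~EC80-90 stimulation); luminescence read after 15 min at room temperature. IC50 from sigmoidal fit of % inhibition.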

Row | Compound | IC50
1 | NC(=O)c1cnn2c(C(=O)NC3Cc4cccc(CCC(F)(F)F)c4C3)ccnc12 (centres unmarked) [Compound 14, N7-[4-(3,3,3-trifluoropropyl)indan-2-yl]pyrazolo[1,5-a]pyrimidine-3,7-dicarboxamide] | 500 to 5000 nM
2 | NC(=O)c1c(C2CC2)nn2c(C(=O)NC3CC(F)(F)C3)ccnc12 [Compound 136, 2-cyclopropyl-N7-(3,3-difluorocyclobutyl)pyrazolo[1,5-a]pyrimidine-3,7-dicarboxamide] | < 50 nM
3 | NC(=O)c1c(-c2cccnn2)nn2c(C(=O)NC3Cc4ccccc4C3)ccnc12 [Compound 22, N7-indan-2-yl-2-pyridazin-3-yl-pyrazolo[1,5-a]pyrimidine-3,7-dicarboxamide] | 500 to 5000 nM
4 | Cc1nn2c(C(=O)NC3COc4ccccc4C3)ccnc2c1C(N)=O (centres unmarked) [Compound 47, N7-chroman-3-yl-2-methyl-pyrazolo[1,5-a]pyrimidine-3,7-dicarboxamide] | 500 to 5000 nM
5 | COCc1nn2c(C(=O)NCC3CC3)ccnc2c1C(N)=O [Compound 81, N7-(cyclopropylmethyl)-2-(methoxymethyl)pyrazolo[1,5-a]pyrimidine-3,7-dicarboxamide] | 50 to 500 nM
6 | COCc1nn2c(C(=O)N[C@H]3COc4cc(F)ccc43)ccnc2c1C(N)=O [Compound 128, 2-(methoxymethyl)-N7-[(3R)-6-fluoro-2,3-dihydrobenzofuran-3-yl]pyrazolo[1,5-a]pyrimidine-3,7-dicarboxamide] | < 50 nM
7 | NC(=O)c1c(C2CC2)nn2c(C(=O)NC3Cc4cccnc4C3)ccnc12 (centres unmarked) [Compound 115, 2-cyclopropyl-N7-(6,7-dihydro-5H-cyclopenta[b]pyridin-6-yl)pyrazolo[1,5-a]pyrimidine-3,7-dicarboxamide] | < 50 nM
8 | NC(=O)c1cnn2c(C(=O)NC3Cc4cccc(Oc5ccc(Cl)cc5)c4C3)ccnc12 (centres unmarked) [Compound 16, N7-[4-(4-chlorophenoxy)indan-2-yl]pyrazolo[1,5-a]pyrimidine-3,7-dicarboxamide] | 50000 to 100000 nM
9 | COCc1nn2c(C(=O)NC3Cc4cscc4C3)ccnc2c1C(N)=O [Compound 85, N7-(5,6-dihydro-4H-cyclopenta[c]thiophen-5-yl)-2-(methoxymethyl)pyrazolo[1,5-a]pyrimidine-3,7-dicarboxamide] | < 50 nM
10 | COCc1nn2c(C(=O)NC3CCC34CC(F)(F)C4)ccnc2c1C(N)=O (centres unmarked) [Compound 131, N7-(2,2-difluorospiro[3.3]heptan-7-yl)-2-(methoxymethyl)pyrazolo[1,5-a]pyrimidine-3,7-dicarboxamide] | 500 to 5000 nM
11 | CNCc1nn2c(C(=O)NC3Cc4ccccc4C3)ccnc2c1C(N)=O [Compound 30, N7-indan-2-yl-2-(methylaminomethyl)pyrazolo[1,5-a]pyrimidine-3,7-dicarboxamide] | 500 to 5000 nM
12 | COCc1nn2c(C(=O)N[C@H]3CC[C@@H](OC(F)(F)F)CC3)ccnc2c1C(N)=O [Compound 132, 2-(methoxymethyl)-N7-[cis-4-(trifluoromethoxy)cyclohexyl]pyrazolo[1,5-a]pyrimidine-3,7-dicarboxamide] | 50 to 500 nM
13 | Cc1nn2c(C(=O)N[C@H]3C[C@@H](C#N)C3)ccnc2c1C(N)=O [Compound 50, N7-(cis-3-cyanocyclobutyl)-2-methyl-pyrazolo[1,5-a]pyrimidine-3,7-dicarboxamide] | 500 to 5000 nM
14 | COCc1nn2c(C(=O)NCc3ccc(F)cc3)ccnc2c1C(N)=O [Compound 70, N7-[(4-fluorophenyl)methyl]-2-(methoxymethyl)pyrazolo[1,5-a]pyrimidine-3,7-dicarboxamide] | < 50 nM
15 | COCc1nn2c(C(=O)NCc3ccccc3)ccnc2c1C(N)=O [Compound 69, N7-benzyl-2-(methoxymethyl)pyrazolo[1,5-a]pyrimidine-3,7-dicarboxamide] | 50 to 500 nM
16 | NC(=O)c1cnn2c(C(=O)N[C@H]3C[C@@H](OC(F)(F)F)C3)ccnc12 [Compound 18, N7-[cis-3-(trifluoromethoxy)cyclobutyl]pyrazolo[1,5-a]pyrimidine-3,7-dicarboxamide] | 500 to 5000 nM
17 | COCc1nn2c(C(=O)NC3Cc4ccccc43)ccnc2c1C(N)=O (centres unmarked) [Compound 88, N7-(7-bicyclo[4.2.0]octa-1,3,5-trienyl)-2-(methoxymethyl)pyrazolo[1,5-a]pyrimidine-3,7-dicarboxamide] | < 50 nM
18 | COCc1nn2c(C(=O)N[C@H]3CC[C@@H](C)CC3)ccnc2c1C(N)=O [Compound 84, 2-(methoxymethyl)-N7-(cis-4-methylcyclohexyl)pyrazolo[1,5-a]pyrimidine-3,7-dicarboxamide] | 500 to 5000 nM
19 | COCc1nn2c(C(=O)NC3CCCCC3)ccnc2c1C(N)=O [Compound 76, N7-cyclohexyl-2-(methoxymethyl)pyrazolo[1,5-a]pyrimidine-3,7-dicarboxamide] | 50 to 500 nM
20 | COc1ccc2c(c1)CC(NC(=O)c1ccnc3c(C(N)=O)cnn13)C2 (centres unmarked) [Compound 3, N7-(5-methoxyindan-2-yl)pyrazolo[1,5-a]pyrimidine-3,7-dicarboxamide] | 50000 to 100000 nM
21 | COCc1nn2c(C(=O)Nc3cc(C)cc(C)n3)ccnc2c1C(N)=O [Compound 64, N7-(4,6-dimethyl-2-pyridyl)-2-(methoxymethyl)pyrazolo[1,5-a]pyrimidine-3,7-dicarboxamide] | < 50 nM
22 | CN1CC(c2nn3c(C(=O)NC4Cc5ccccc5C4)ccnc3c2C(N)=O)C1 [Compound 24, N7-indan-2-yl-2-(1-methylazetidin-3-yl)pyrazolo[1,5-a]pyrimidine-3,7-dicarboxamide] | 50000 to 100000 nM
23 | CN(C)c1nn2c(C(=O)NC3CC(F)(F)C3)ccnc2c1C(N)=O [Compound 35, N7-(3,3-difluorocyclobutyl)-2-(dimethylamino)pyrazolo[1,5-a]pyrimidine-3,7-dicarboxamide] | 500 to 5000 nM

Now from value to compound:

Row | IC50 | Compound
24 | < 50 nM | COCc1nn2c(C(=O)NC3COc4c(F)cccc43)ccnc2c1C(N)=O (centres unmarked) [Compound 192, N7-(7-fluoro-2,3-dihydrobenzofuran-3-yl)-2-(methoxymethyl)pyrazolo[1,5-a]pyrimidine-3,7-dicarboxamide]
25 | < 50 nM | COCc1nn2c(C(=O)NC3CS(=O)(=O)C3)ccnc2c1C(N)=O [Compound 225, N7-(1,1-dioxothietan-3-yl)-2-(methoxymethyl)pyrazolo[1,5-a]pyrimidine-3,7-dicarboxamide]
26 | 50 to 500 nM | CS(=O)(=O)Cc1nn2c(C(=O)NC3Cc4ccccc4C3)ccnc2c1C(N)=O [Compound 215, N7-indan-2-yl-2-(methylsulfonylmethyl)pyrazolo[1,5-a]pyrimidine-3,7-dicarboxamide]
27 | < 50 nM | NC(=O)c1c(C2CC2)nn2c(C(=O)NC3CCS(=O)(=O)c4ccccc43)ccnc12 (centres unmarked) [Compound 229, 2-cyclopropyl-N7-(1,1-dioxo-3,4-dihydro-2H-thiochromen-4-yl)pyrazolo[1,5-a]pyrimidine-3,7-dicarboxamide]
28 | < 50 nM | COCc1nn2c(C(=O)N[C@@H]3Cc4ccccc4[C@@H]3O)ccnc2c1C(N)=O (relative stereo) [Compound 200, N7-(cis-1-hydroxyindan-2-yl)-2-(methoxymethyl)pyrazolo[1,5-a]pyrimidine-3,7-dicarboxamide]
29 | < 50 nM | COCc1nn2c(C(=O)NC3CCC(F)(F)c4ccccc43)cc(C)nc2c1C(N)=O (centres unmarked) [Compound 226, N7-(4,4-difluorotetralin-1-yl)-2-(methoxymethyl)-5-methyl-pyrazolo[1,5-a]pyrimidine-3,7-dicarboxamide]
30 | < 50 nM | COCc1nn2c(C(=O)N[C@@H]3COc4c3ccc(F)c4F)ccnc2c1C(N)=O [Compound 238, N7-[(3S)-6,7-difluoro-2,3-dihydrobenzofuran-3-yl]-2-(methoxymethyl)pyrazolo[1,5-a]pyrimidine-3,7-dicarboxamide]
31 | < 50 nM | COCc1nn2c(C(=O)NC3COc4ccc(F)cc4C3)ccnc2c1C(N)=O (centres unmarked) [Compound 196, N7-(6-fluorochroman-3-yl)-2-(methoxymethyl)pyrazolo[1,5-a]pyrimidine-3,7-dicarboxamide]
32 | < 50 nM | COCc1nn2c(C(=O)N[C@@H]3CCS(=O)(=O)c4ccccc43)ccnc2c1C(N)=O [Compound 233, N7-[(4R)-1,1-dioxo-3,4-dihydro-2H-thiochromen-4-yl]-2-(methoxymethyl)pyrazolo[1,5-a]pyrimidine-3,7-dicarboxamidfe]
33 | < 50 nM | COCc1nn2c(C(=O)NC3Cc4ccccc4C3(F)F)ccnc2c1C(N)=O (centres unmarked) [Compound 152, N7-(1,1-difluoroindan-2-yl)-2-(methoxymethyl)pyrazolo[1,5-a]pyrimidine-3,7-dicarboxamide]
34 | 50 to 500 nM | COCc1nn2c(C(=O)NC3Cc4ccccc4C3)ccnc2c1C(N)=S [Compound 149, 3-carbamothioyl-N-indan-2-yl-2-(methoxymethyl)pyrazolo[1,5-a]pyrimidine-7-carboxamide]

same assay, conditions: hGPR68 IC50, HEK293T cells transiently expressing hGPR68, antagonism of pH 5.5 stimulated cAMP, 15 min

Row | IC50 | Compound
35 | < 50 nM | CC(C)OCc1nn2c(C(=O)NC3Cc4ccccc4C3)ccnc2c1C(N)=O [Compound 27, N7-indan-2-yl-2-(isopropoxymethyl)pyrazolo[1,5-a]pyrimidine-3,7-dicarboxamide]
36 | < 50 nM | COCc1nn2c(C(=O)Nc3ccc(C(F)(F)F)cn3)ccnc2c1C(N)=O [Compound 59, 2-(methoxymethyl)-N7-[5-(trifluoromethyl)-2-pyridyl]pyrazolo[1,5-a]pyrimidine-3,7-dicarboxamide]
37 | < 50 nM | NC(=O)c1c(CO)nn2c(C(=O)N[C@H]3C[C@@H](OC(F)(F)F)C3)ccnc12 [Compound 141, 2-(hydroxymethyl)-N7-[cis-3-(trifluoromethoxy)cyclobutyl]pyrazolo[1,5-a]pyrimidine-3,7-dicarboxamide]
38 | 50 to 500 nM | NC(=O)c1c(C2CCCO2)nn2c(C(=O)NC3Cc4ccccc4C3)ccnc12 (centres unmarked) [Compound 44, N7-indan-2-yl-2-tetrahydrofuran-2-yl-pyrazolo[1,5-a]pyrimidine-3,7-dicarboxamide]
